The target of this assay is SARS2 coronavirus 3CL protease (Severe acute respiratory syndrome coronavirus 2 (2019-nCoV) (SARS-CoV-2), UniProt P0DTD1). In words: SARS2 Coronavirus 3CL Protease Assay (FRET). The settings on record: SARS2 3CLPro FRET assay; 5 nM enzyme, 30 min pre-incubation with compound, 15 uM peptide substrate, 4 h room temperature. It is filed as biochemical.
Take `CNC(=O)C(=O)[C@H](CCC(C)(F)F)NC(=O)[C@@H]1CC2(CN1C(=O)[C@@H](NC(=O)OC)C(C)(C)C)CC(F)(F)C2` [Example 53, Methyl ((S)-1-((S)-7-(((S)-6,6-difluoro-1-(methylamino)-1,2-dioxoheptan-3-yl)carbamoyl)-2,2-difluoro-6-azaspiro[3.4]octan-6-yl)-3,3-dimethyl-1-oxobutan-2-yl)carbamate]: the IC50 – broadly, the concentration at which inhibition is half-maximal – worked out at 196 nM.

As to `COC(=O)N[C@H](C(=O)N1C[C@H]2[C@@H]([C@H]1C(=O)N[C@@H](CCC(C)(F)F)C(=O)C(=O)NC1CC1)C2(C)C)C(C)(C)C` [Example 6, Methyl ((S)-1-((1R,2S,5S)-2-(((S)-1-(cyclopropylamino)-6,6-difluoro-1,2-dioxoheptan-3-yl)carbamoyl)-6,6-dimethyl-3-azabicyclo[3.1.0]hexan-3-yl)-3,3-dimethyl-1-oxobutan-2-yl)carbamate], the IC50 came out at 17 nM.

With `COC(=O)N[C@H](C(=O)N1CC[C@]2(C[C@H]1C(=O)N[C@@H](CCC(C)(F)F)C(=O)C(=O)NC1CC1)CC2(F)F)C(C)(C)C` [Example 94, methyl ((S)-1-((3S,5S)-5-(((S)-1-(cyclopropylamino)-6,6-difluoro-1,2-dioxoheptan-3-yl)carbamoyl)-1,1-difluoro-6-azaspiro[2.5]octan-6-yl)-3,3-dimethyl-1-oxobutan-2-yl)carbamate], the 50% inhibitory concentration (IC50) amounted to 9 nM.

In the case of `CNC(=O)C(=O)[C@H](CCC(C)(F)F)NC(=O)C1C2CC(C)(C)C2CN1C(=O)[C@@H](NC(=O)OC)C(C)(C)C` (single isomer, unassigned) [Example 95, methyl ((S)-1-((1S,2S,5S or 1R,2R,5R)-2-(((S)-6,6-difluoro-1-(methylamino)-1,2-dioxoheptan-3-yl)carbamoyl)-6,6-dimethyl-3-azabicyclo[3.2.0]heptan-3-yl)-3,3-dimethyl-1-oxobutan-2-yl)carbamate], the IC50 is 5 nM.

On to `CNC(=O)C(=O)[C@H](CCC(C)(F)F)NC(=O)[C@@H]1[C@@H]2CC[C@@H](C2)CN1C(=O)[C@@H](NC(=O)OC)C(C)(C)C` [Example 89, methyl ((S)-1-((1R,2S,5S)-2-(((S)-6,6-difluoro-1-(methylamino)-1,2-dioxoheptan-3-yl)carbamoyl)-3-azabicyclo[3.2.1]octan-3-yl)-3,3-dimethyl-1-oxobutan-2-yl)carbamate], for which the IC50 was found to be 13 nM.

For `COC(=O)N[C@H](C(=O)N1C[C@@H]2CC(C)(C)[C@@H]2[C@H]1C(=O)N[C@@H](CCC(C)(F)F)C(=O)C(=O)NC1CC1)C(C)(C)C` [Example 25, Methyl ((S)-1-((1R,2S,5R)-2-(((S)-1-(cyclopropylamino)-6,6-difluoro-1,2-dioxoheptan-3-yl)carbamoyl)-7,7-dimethyl-3-azabicyclo[3.2.0]heptan-3-yl)-3,3-dimethyl-1-oxobutan-2-yl)carbamate], the half-inhibitory concentration (IC50) came to 8.7 nM.

As for `COC(=O)NC1(C(=O)N2CC3(CCCCC3)C[C@H]2C(=O)N[C@@H](CCC(C)(F)F)C(=O)C(=O)NC2CC2)CC1` [Example 19, Methyl (1-((S)-3-(((S)-1-(cyclopropylamino)-6,6-difluoro-1,2-dioxoheptan-3-yl)carbamoyl)-2-azaspiro[4.5]decane-2-carbonyl)cyclopropyl) carbamate], the IC50 was 497 nM.

On to `COC(=O)N[C@@H](Cc1ccccc1)C(=O)N1CC[C@@H](C(F)(F)F)C[C@H]1C(=O)N[C@@H](CCC(C)(F)F)C(=O)C(=O)NC1CC1` [Example 68, Methyl ((S)-1-((2S,4R)-2-(((S)-1-(cyclopropylamino)-6,6-difluoro-1,2-dioxoheptan-3-yl)carbamoyl)-4-(trifluoromethyl)piperidin-1-yl)-1-oxo-3-phenylpropan-2-yl)carbamate], for which the IC50 was 28 nM.

For `COC(=O)N[C@H](C(=O)N1CC[C@@H](C(F)(F)F)C[C@H]1C(=O)N[C@@H](CCC(C)(F)F)C(=O)C(=O)NC1CC1)c1ccccc1` [Example 65, Methyl ((S)-2-((2S,4R)-2-(((S)-1-(cyclopropylamino)-6,6-difluoro-1,2-dioxoheptan-3-yl)carbamoyl)-4-(trifluoromethyl)piperidin-1-yl)-2-oxo-1-phenylethyl)carbamate], the IC50 was determined as 24 nM.

For `COC(=O)N[C@H](C(=O)N1CCC(O)(C(F)(F)F)C[C@H]1C(=O)N[C@@H](CCC(C)(F)F)C(=O)C(=O)NC1CC1)C(C)(C)C` (single isomer, unassigned) [Example 58, Methyl ((S)-1-((2S, 4(R or S))-2-(((S)-1-(cyclopropylamino)-6,6-difluoro-1,2-dioxoheptan-3-yl)carbamoyl)-4-hydroxy-4-(trifluoromethyl)piperidin-1-yl)-3,3-dimethyl-1-oxobutan-2-yl)carbamate], the IC50 worked out at 347 nM.

`CNC(=O)C(=O)[C@H](CCC(C)(F)F)NC(=O)[C@@H]1CC2(CCCCC2)CN1C(=O)[C@@H](NC(=O)OC)C(C)(C)C` [Example 62, Methyl ((S)-1-((S)-3-(((S)-6,6-difluoro-1-(methylamino)-1,2-dioxoheptan-3-yl)carbamoyl)-2-azaspiro[4.5]decan-2-yl)-3,3-dimethyl-1-oxobutan-2-yl)carbamate]: the IC50 amounted to 8.8 nM.

Regarding `COC(=O)N[C@H](C(=O)N1C[C@@H]2CCCC[C@@H]2C[C@H]1C(=O)N[C@@H](CCC(C)(F)F)C(=O)C(=O)NC1CC1)C(C)(C)C` [Example 26, Methyl ((S)-1-((3S,4aR,8aR)-3-(((S)-1-(cyclopropylamino)-6,6-difluoro-1,2-dioxoheptan-3-yl)carbamoyl)octahydroiso-quinolin-2(1H)-yl)-3,3-dimethyl-1-oxobutan-2-yl)carbamate], the concentration for half-maximal inhibition (IC50) is 22 nM.

Regarding `COC(=O)N[C@H](C(=O)N1CC2(CCCCC2)C[C@H]1C(=O)N[C@@H](CCC(C)(F)F)C(=O)C(=O)NCc1ccccc1)C(C)(C)C` [Example 7, Methyl ((S)-1-((S)-3-(((S)-1-(benzylamino)-6,6-difluoro-1,2-dioxoheptan-3-yl)carbamoyl)-2-azaspiro[4.5]decan-2-yl)-3,3-dimethyl-1-oxobutan-2-yl)carbamate], the half-maximal inhibitory concentration (IC50) worked out at 11 nM.

As to `COC(=O)N[C@H](C(=O)N1CC(C)(C)CCC1C(=O)N[C@@H](CCC(C)(F)F)C(=O)C(=O)NC1CC1)C(C)(C)C` (single isomer, unassigned) [Example 52, Methyl ((S)-1-(R or S)-2-(((S)-1-(cyclopropylamino)-6,6-difluoro-1,2-dioxoheptan-3-yl)carbamoyl)-5,5-dimethylpiperidin-1-yl)-3,3-dimethyl-1-oxobutan-2-yl)carbamate], the IC50 worked out at 144 nM.

For the molecule `CNC(=O)C(=O)[C@H](CCC(C)(F)F)NC(=O)[C@@H]1CC2(CCN1C(=O)[C@@H](NC(=O)OC)C(C)(C)C)CC2` [Example 21, Methyl ((S)-1-((S)-5-(((S)-6,6-difluoro-1-(methylamino)-1,2-dioxoheptan-3-yl)carbamoyl)-6-azaspiro[2.5]octan-6-yl)-3,3-dimethyl-1-oxobutan-2-yl)carbamate], the half-maximal inhibitory concentration (IC50) is 6.5 nM.

As for `COC(=O)N[C@H](C(=O)N1CC2(CCC(F)(F)CC2)CC1C(=O)N[C@@H](CCC(C)(F)F)C(=O)C(=O)NC1CC1)C(C)(C)C` (single isomer, unassigned) [Example 56, Methyl ((S)-1-((R or S)-(3-(((S)-1-(cyclopropylamino)-6,6-difluoro-1,2-dioxoheptan-3-yl)carbamoyl)-8,8-difluoro-2-azaspiro[4.5]decan-2-yl)-3,3-dimethyl-1-oxobutan-2-yl)carbamate], the IC50 was 291 nM.

For the molecule `COC(=O)N[C@H](C(=O)N1CC2(C[C@H]1C(=O)N[C@@H](CCC(C)(F)F)C(=O)C(=O)NC1CC1)CC2(F)F)C(C)(C)C` (single isomer, unassigned) [Example 32, Methyl ((S)-1-((3(R or S),6S)-6-(((S)-1-(cyclopropylamino)-6,6-difluoro-1,2-dioxoheptan-3-yl)carbamoyl)-1,1-difluoro-5-azaspiro[2.4]heptan-5-yl)-3,3-dimethyl-1-oxobutan-2-yl)carbamate], the concentration for half-maximal inhibition (IC50) was found to be 15 nM.

For `COC(=O)N[C@H](C(=O)N1CC2(CCCCC2)C[C@H]1C(=O)N[C@@H](CCC(C)(F)F)C(=O)C(=O)NC(C)(C)C)C(C)(C)C` [Example 18, Methyl ((S)-1-((S)-3-(((S)-1-(tert-butylamino)-6,6-difluoro-1,2-dioxoheptan-3-yl)carbamoyl)-2-azaspiro[4.5]decan-2-yl)-3,3-dimethyl-1-oxobutan-2-yl)carbamate], the half-inhibitory concentration (IC50) was 42 nM.

For the molecule `COC(=O)N[C@H](C(=O)N1CC2CC2C[C@H]1C(=O)N[C@@H](CCC(C)(F)F)C(=O)C(=O)NC1CC1)C(C)(C)C` (single isomer, unassigned) [Example 84, methyl ((S)-1-((1S,4S,6S or 1R,4S,6R)-4-(((S)-1-(cyclopropylamino)-6,6-difluoro-1,2-dioxoheptan-3-yl)carbamoyl)-3-azabicyclo[4.1.0]heptan-3-yl)-3,3-dimethyl-1-oxobutan-2-yl)carbamate], the IC50 is 96 nM.

For `COC(=O)N[C@H](C(=O)N1CC(C2CCC2)C[C@H]1C(=O)N[C@@H](CCC(C)(F)F)C(=O)C(=O)NC1CC1)C(C)(C)C` (single isomer, unassigned) [Example 1, Methyl ((S)-1-((2S,4(S or R))-4-cyclobutyl-2-(((S)-1-(cyclopropylamino)-6,6-difluoro-1,2-dioxoheptan-3-yl)carbamoyl)pyrrolidin-1-yl)-3,3-dimethyl-1-oxobutan-2-yl)carbamate], the IC50 came to 28 nM.

For `CCOC(=O)N[C@H](C(=O)N1C[C@@H]2CCC[C@@H]2[C@H]1C(=O)N[C@@H](CCC(C)(F)F)C(=O)C(=O)NC)C(C)(C)C` [Example 120, ethyl ((S)-1-((1S,3aR,6aS)-1-(((S)-6,6-difluoro-1-(methylamino)-1,2-dioxoheptan-3-yl)carbamoyl)hexahydrocyclopenta[c]pyrrol-2(1H)-yl)-3,3-dimethyl-1-oxobutan-2-yl)carbamate], the half-maximal inhibitory concentration (IC50) came out at 21 nM.

The values above are taken from patent publication US20250223259A1, “PROTEASE INHIBITORS FOR TREATING OR PREVENTING CORONAVIRUS INFECTION” (Merck Sharp & Dohme LLC, priority 2022, published 2025).
